# Key:
# [1] = AUC (0 to infinity) in Sprague-Dawley rat at 10 mg/kg, po measured for 0.083 to 24 hrs by LC-MS/MS analysis; format: ADME, organism-based; conditions: in vivo, time 0.083-24 hrs
# [2] = Cmax in Sprague-Dawley rat at 10 mg/kg, po measured for 0.083 to 24 hrs by LC-MS/MS analysis; format: ADME, organism-based; conditions: in vivo, time 0.083-24 hrs
# [3] = Metabolic stability in dog liver microsomes assessed as half life at 1 uM measured up to 45 mins by LC/MS/MS analysis; format: ADME, Canis lupus familiaris, Microsome; conditions: microsomes, 0.75 h, 1 µM
# [4] = Selectivity index, ratio of CC50 for cytotoxicity against human MT4 cells to EC50 for antiviral activity against wild-type HIV-1 IIIB infected in human MT4 cells; format: toxicity, cell-based; conditions: read-out: Ratio CC50/EC50
# [5] = MRT (0 to t) in Sprague-Dawley rat at 1 mg/kg, iv measured for 0.083 to 24 hrs by LC-MS/MS analysis; format: ADME, organism-based; conditions: in vivo, time 0.083-24 hrs
structure (smiles),measurement,setting,value
[2H]C([2H])([2H])c1cc(C#N)cc(C([2H])([2H])[2H])c1Oc1nc(NC2CCN(Cc3ccc(S(N)(=O)=O)cc3)CC2)nc2ccsc12,AUC(0-inf),[1],1800 ng·h/mL
same,Cmax,[2],553 ng/mL
same,t1/2,[3],20.4 min
same,selectivity ratio,[4],> 227000
same,MRT last,[5],49.2 min

# Source: ChEMBL document CHEMBL6134848, “Deuteration Strategy-Inspired Design of Novel Diarylpyrimidine Derivatives as Potent Non-Nucleoside Reverse Transcriptase Inhibitors Featuring Improved Efficacy, Selectivity, and Druggability” (J Med Chem, 2025)
